# Reference: patent US20250129012A1, “ANTI-INFLAMMATORY AND ANALGESIC COMPOUNDS AND USE THEREOF” (JIANGSU ATOM BIOSCIENCE AND PHARMACEUTICAL CO., LTD., priority 2021, published 2025)
# Where two headings read alike, the source gives them in different places. Marks after values point to notes of the source that are not given here.
# Assays:
# TNF-α = experiment: Inflammatory factor experiment B: TNF-α in knee synovial tissue (ELISA); type: in vivo, SD rats; conditions: for inhibition in vivo at 0.6 mg/kg: Rattus norvegicus, po, 48 h, read-out: TNF-α percentage decrease %
# IL-6 = experiment: Inflammatory factor experiment B: IL-6 in knee synovial tissue (ELISA); type: in vivo, SD rats; conditions: Rattus norvegicus, po, 48 h, read-out: IL-6 percentage decrease %
# IL-1β = experiment: Inflammatory factor experiment B: IL-1β in knee synovial tissue (ELISA); type: in vivo, SD rats; conditions: for inhibition in vivo at 0.6 mg/kg: Rattus norvegicus, po, 48 h, read-out: IL-1β percentage decrease %
# [1] = tested on: gouty arthritis rats (sodium urate, right ankle and knee joint cavities); experiment: Pharmacodynamics experiment B on gouty arthritis rats: ankle swelling rate; type: in vivo, SD rats; conditions: for change in vivo at 0.6 mg/kg: Rattus norvegicus, po, read-out: Swelling rate (ankle); for Swelling rate (ankle): dose 0.6 mg/kg gavage
# Experimental: (§1) Compounds 12, 16, 19, 30, 34, 36, 38, 40, 44, 48, 49, 52, 58, 69, 83, 98, 102, 119, 121, and 122 were prepared by grinding with 0.5% CMC-Na prior to administration and formulated into suspensions of appropriate concentration (0.12 mg/mL) for gavage, with an administered dose of 0.5 mL/100 g.
# (§2) 240 SD rats, males, were acclimatized for one week and weighed 180-220 g. […] The dose of each compound group was 0.6 mg/kg. The compounds in each group were prepared into the corresponding concentration suspension, and the volume of administration was 10 mL/kg.
# (§3) 250 mg of sodium urate were added to 9 mL of saline, and 1 mL of Tween-80 solution was added, the resulting mixture was heated and stirred to formulate 10 mL of sodium urate solution. The rats were grasped and fixed, and 0.2 mL of sodium urate solution was injected into the right ankle and knee joint cavities respectively to establish gouty arthritis rat model.
# (§4) Before modeling, positive drug and tested compounds were pre-administered for 7 days, once a day, and modeling was performed on day 8, and drug administration by gavage continued for 3 days after modeling.
# Before modeling and 2 h, 4 h, 8 h, 10 h, 24 h and 48 h after modeling, the circumference of the right ankle joint was measured using a soft ruler or the volume change at the ankle was measured (volumetric method), and the swelling degree and swelling rate of ankle joint were calculated:
# Swelling degree (mm)=measured circumference (mm)−baseline circumference (mm)
# Swelling rate (%)=swelling degree (mm)/baseline circumference (mm)×100%
# (§5) Each experimental data was expressed as the mean, and intergroup comparisons were examined for significance using the ANOVA-Dunnett T-test, with P<0.05 as the significance indicator.
# [2] = tested on: gouty arthritis rats (sodium urate, right ankle and knee joint cavities); experiment: Pharmacodynamics experiment B on gouty arthritis rats: gait score; type: in vivo, SD rats; conditions: for Gait Score: dose 0.6 mg/kg gavage, mean
# Experimental: as §1, §2, §3, §4
# Gait was scored according to the modified gait grading criteria introduced by Coderre et al. The gait of each rat was observed before and 2 h, 4 h, 8 h, 10 h, 24 h and 48 h after modeling and graded scoring was performed. The gait grading criteria were as follows: 0 point, normal walking; 1 point, slight lameness, the lower limbs were slightly bent; 2 points: moderate lameness, the lower limbs just touched the ground; 3 points, severe lameness, the lower limbs left the ground, and walked on three feet. The mean score of each group was calculated and compared with that of the model group.
# as §5
# [3] = In vivo pharmacokinetics in SD rats
# Experimental: Compound stock solution preparation: an appropriate amount of solid powder of the compounds were weighed separately, a certain amount of DMSO was added and 20 mg/mL of stock solution was obtained under vortex ultrasound.
# Preparation of test compound for gavage: an appropriate amount of compound stock solution was taken by pipette, a certain amount of Solutol HS15 solution was added, the mixture was vortexed for 1 minute, then a certain amount of saline was added, and 1 mg/mL of solution was obtained after mixing well.
# Preparation of test compounds for intravenous injection: an appropriate amount of compound stock solution was taken by pipette separately, a certain amount of Solutol HS15 solution was added, the mixture was vortexed for 1 minute, then a certain amount of physiological saline was added and a solution of 0.5 mg/mL was obtained after mixing well.
# The animals were fasted overnight before administration by gavage, and food was given 4 hours after administration, during which they were free to drink. Two groups were set for each test compound, intravenous injection group and oral administration group, and the dose and mode of administration were shown in Table 12 below.
# The blood samples were centrifuged at 4° C. for 5 min at 2,000 g to separate the plasma. The plasma samples were analyzed by LC/MS/MS to detect the concentration of each test compound in the plasma samples.
# The parameters related to the […] were obtained by calculations with WinNonlin® Professional software.
# [4] = synovial tissue of knee joints, 48 h after modeling, dose 0.6 mg/kg
# [5] = Intravenous injection - 1 mg/kg
smiles,measurement,setting,value
CCNS(=O)(=O)N[C@H]1CCc2cc(OC)c(OC)c(OC)c2-c2ccc(C(=O)OC)c(=O)cc21 [Compound 112],inhibition in vivo at 0.6 mg/kg,TNF-α,97.8%
same,inhibition in vivo at 0.6 mg/kg,IL-6,165%
same,inhibition in vivo at 0.6 mg/kg,IL-1β,92%
"COc1cc2c(c(OC)c1OC)-c1ccc(-c3cnn(C)c3)c(=O)cc1[C@@H](NC(C)=O)CC2 [Compound 119, (S)—N-{1,2,3-trimethoxy-10-(1-methyl-1H-pyrazol-4-yl)-9-oxo-5,6,7,9-tetrahydrobenzo[a]heptalen-7-yl}acetamide]",change in vivo at 0.6 mg/kg,[1]; 2 h,10.4%
same,change in vivo at 0.6 mg/kg,[1]; 4 h,14.1%
same,change in vivo at 0.6 mg/kg,[1]; 8 h,19.4%
same,change in vivo at 0.6 mg/kg,[1]; 10 h,22.2%
same,change in vivo at 0.6 mg/kg,[1]; 24 h,15.8%
same,change in vivo at 0.6 mg/kg,[1]; 48 h,5.3%
same,inhibition in vivo at 0.6 mg/kg,TNF-α,105%
same,inhibition in vivo at 0.6 mg/kg,IL-6,169%
same,Gait Score,[2]; 2 h,0
same,Gait Score,[2]; 4 h,0
same,Gait Score,[2]; 8 h,0.1*
same,Gait Score,[2]; 10 h,0.4
same,Gait Score,[2]; 24 h,0.
same,Gait Score,[2]; 48 h,0
same,inhibition in vivo at 0.6 mg/kg,IL-1β,85.5%
"COc1cc2c(c(OC)c1OC)-c1ccc(S(N)(=O)=O)c(=O)cc1[C@@H](NC(C)=O)CC2 [Compound 69, (S)—N-[1,2,3-trimethoxy-9-oxo-10-aminosulfonyl-5,6,7,9-tetrahydrobenzo[a]heptalen-7-yl]acetamide]",change in vivo at 0.6 mg/kg,[1]; 2 h,5.65%
same,change in vivo at 0.6 mg/kg,[1]; 4 h,7.01%
same,change in vivo at 0.6 mg/kg,[1]; 8 h,14.7%
same,change in vivo at 0.6 mg/kg,[1]; 10 h,26.8%
same,change in vivo at 0.6 mg/kg,[1]; 24 h,19%
same,change in vivo at 0.6 mg/kg,[1]; 48 h,5.21%
same,inhibition in vivo at 0.6 mg/kg,TNF-α,76.1%
same,inhibition in vivo at 0.6 mg/kg,IL-6,83%
same,Gait Score,[2]; 2 h,0
same,Gait Score,[2]; 4 h,0
same,Gait Score,[2]; 8 h,0*
same,Gait Score,[2]; 10 h,0*
same,Gait Score,[2]; 24 h,0
same,Gait Score,[2]; 48 h,0
same,"Gait versus model group, in words","[2]; compounds 0.6 mg/kg, colchicine 0.6 and 1.2 mg/kg",significant improvement in gait occurred at different time points
same,inhibition in vivo at 0.6 mg/kg,IL-1β,110%
"COC(=O)c1ccc2c(cc1=O)[C@@H](N1CCCCC1=O)CCc1cc(OC)c(OC)c(OC)c1-2 [Compound 108, methyl (S)-1,2,3-trimethoxy-9-oxo-7-(2-oxopiperidin-1-yl)-5,6,7,9-tetrahydrobenzo[a]heptalen-10-carboxylate]",inhibition in vivo at 0.6 mg/kg,TNF-α,104%
same,inhibition in vivo at 0.6 mg/kg,IL-6,207%
same,inhibition in vivo at 0.6 mg/kg,IL-1β,92.7%
"COc1cc2c(c(OC)c1OC)-c1ccc(-n3cnnn3)c(=O)cc1[C@@H](NC(C)=O)CC2 [Compound 95, (S)—N-{1,2,3-trimethoxy-9-oxo-10-(1H-tetrazol-1-yl)-5,6,7,9-tetrahydrobenzo[a]heptalen-7-yl}acetamide]",inhibition in vivo at 0.6 mg/kg,TNF-α,70%
same,inhibition in vivo at 0.6 mg/kg,IL-6,109%
same,inhibition in vivo at 0.6 mg/kg,IL-1β,40.4%
"[2H]C([2H])([2H])Oc1c(OC)cc2c(c1OC)-c1ccc(C(=O)NC)c(=O)cc1[C@@H](NC(C)=O)CC2 [Compound 122, (S)-7-acetamido-1,3-dimethoxy-2-trideutero-methoxy-N-methyl-9-oxo-5,6,7,9-tetrahydrobenzo[a]heptalen-10-carboxamide]",Swelling rate (ankle),[1]; 2 h,7.9%**
same,Swelling rate (ankle),[1]; 4 h,12.1%**
same,Swelling rate (ankle),[1]; 8 h,15.8%**
same,Swelling rate (ankle),[1]; 10 h,15.3%**
same,Swelling rate (ankle),[1]; 24 h,12.5%**
same,Swelling rate (ankle),[1]; 48 h,4.7%**
same,TNF-α percentage decrease %,TNF-α; [4],98.89%
same,Gait Score,[2]; 0 h,0
same,Gait Score,[2]; 2 h,0
same,Gait Score,[2]; 4 h,0.2
same,Gait Score,[2]; 8 h,0.1
same,Gait Score,[2]; 10 h,0.2
same,Gait Score,[2]; 24 h,0.1
same,Gait Score,[2]; 48 h,0
same,AUCINF,[3]; Gavage - 10 mg/kg,3.129 µg·h/mL
same,Cmax,[3]; Gavage - 10 mg/kg,1.153 µg/mL
same,MRTINF,[3]; Gavage - 10 mg/kg,2.47 h
same,Tmax,[3]; Gavage - 10 mg/kg,0.250 h
same,t1/2,[3]; Gavage - 10 mg/kg,1.79 h
same,F,"[3]; Gavage - 10 mg/kg, calculated by AUCINF",50.1%
same,AUCINF,[3]; [5],0.624 µg·h/mL
same,CL,[3]; [5],1.63 L/h/kg
same,MRTINF,[3]; [5],1.34 h
same,VSS,[3]; [5],1.99 L/kg
same,t1/2,[3]; [5],1.57 h
same,IL-1β percentage decrease %,IL-1β; [4],86.87%
"COc1cc2c(c(OC)c1OC)-c1ccc(-n3ccnn3)c(=O)cc1[C@@H](NC(C)=O)CC2 [Compound 99, (S)—N-(1,2,3-trimethoxy-9-oxo-10-(1H-1,2,3-triazol-1-yl)-5,6,7,9-tetrahydrobenzo[a]heptalen-7-yl)acetamide]",inhibition in vivo at 0.6 mg/kg,TNF-α,91.7%
same,inhibition in vivo at 0.6 mg/kg,IL-6,79.6%
same,inhibition in vivo at 0.6 mg/kg,IL-1β,66.4%
"COc1cc2c(c(OC)c1OC)-c1ccc(-n3nccn3)c(=O)cc1[C@@H](NC(C)=O)CC2 [Compound 100, (S)—N-(1,2,3-trimethoxy-9-oxo-10-(2H-1,2,3-triazol-2-yl)-5,6,7,9-tetrahydrobenzo[a]heptalen-7-yl)acetamide]",inhibition in vivo at 0.6 mg/kg,TNF-α,120%
same,inhibition in vivo at 0.6 mg/kg,IL-6,169%
same,inhibition in vivo at 0.6 mg/kg,IL-1β,65.2%
"COc1cc2c(c(OC)c1OC)-c1ccc(C(=O)N3CCCC3)c(=O)cc1[C@@H](NC(C)=O)CC2 [Compound 61, (S)—N-{1,2,3-trimethoxy-9-oxo-10-(pyrrolidin-1-carbonyl)-5,6,7,9-tetrahydrobenzo[a]heptalen-7-yl}acetamide]",inhibition in vivo at 0.6 mg/kg,TNF-α,71.2%
same,inhibition in vivo at 0.6 mg/kg,IL-6,52.5%
same,inhibition in vivo at 0.6 mg/kg,IL-1β,97.2%
"COc1cc2c(c(OC)c1OC)-c1ccc(C(=O)N3CCC[C@H]3C#N)c(=O)cc1[C@@H](NC(C)=O)CC2 [Compound 60, N—{(S)-10-[(S)-2-cyanopyrrolidin-1-carbonyl]-1,2,3-trimethoxy-9-oxo-5,6,7,9-tetrahydrobenzo[a]heptalen-7-yl}acetamide]",inhibition in vivo at 0.6 mg/kg,TNF-α,85.8%
same,inhibition in vivo at 0.6 mg/kg,IL-6,59.5%
same,inhibition in vivo at 0.6 mg/kg,IL-1β,76.1%
"COc1cc2c(c(OC)c1OC)-c1ccc(-n3ccnc3)c(=O)cc1[C@@H](NC(C)=O)CC2 [Compound 97, (S)—N-{10-(1H-imidazol-1-yl)-1,2,3-trimethoxy-9-oxo-5,6,7,9-tetrahydrobenzo[a]heptalen-7-yl}acetamide]",inhibition in vivo at 0.6 mg/kg,TNF-α,92%
same,inhibition in vivo at 0.6 mg/kg,IL-6,97.8%
same,inhibition in vivo at 0.6 mg/kg,IL-1β,20.2%
"CNC(=O)N[C@H]1CCc2cc(OC)c(OC)c(OC)c2-c2ccc(C(=O)NC)c(=O)cc21 [Compound 81, (S)-1,2,3-trimethoxy-N-methyl-7-(3-methylureido)-9-oxo-5,6,7,9-tetrahydrobenzo[a]heptalen-10-carboxamide]",inhibition in vivo at 0.6 mg/kg,TNF-α,78%
same,inhibition in vivo at 0.6 mg/kg,IL-6,70.6%
same,inhibition in vivo at 0.6 mg/kg,IL-1β,86.6%
